Experimental data taken from article PMC3307704 (PLoS ONE, 2012).
Entries after “also recorded” stand apart in the source; their conditions may differ. Like-named read-outs stand apart in the source and are kept apart here.

Tests used:
Human Aβ(1–42) = molecular target: T1, Human Aβ(1–42) (Homo sapiens, UniProt P05067); assay: Aβ peptide oligomerization reaction with capture ELISA for Aβ oligomer detection; type: biochemical; conditions: for inhibition at 1 µM: read-out: Inhibitory activity (Aβ oligomerization)
T1 construct: Human Aβ(1–42) was purchased from AnaSpec (San Jose, CA); purchased AnaSpec (San Jose, CA)
T1 sequence (P05067 672-713 limits assumed): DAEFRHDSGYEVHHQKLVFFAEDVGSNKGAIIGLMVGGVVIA

Murine microglial cells = assay: Wst-1 assay (cytotoxicity); type: cell-based; conditions: 24 h
[1] = tested on: Aβ deposition in aged APP(Swedish)-transgenic mice (Tg2576); conditions: dietary supplement; cited from earlier work
[2] = tested on: high-molecular weight fibrils (Aβ); conditions: in vitro; read-out: IC50, formation of high-molecular weight fibrils; cited from earlier work
[3] = tested on: low-molecular weight Aβ oligomers; conditions: in vitro; read-out: IC50, formation of low-molecular weight Aβ oligomers; cited from earlier work
Aβ aggregation = conditions: saturation of the 7-carbon linker; cited from earlier work
[4] = 1 µM compound, 200 nM monomeric Aβ peptide, 37°C, 24 h, capture ELISA

| inhibition at 1 µM (Human Aβ(1–42); [4]) [%] | Compound | other results |
| --- | --- | --- |
| 80 | COc1ccc(/C=C/C(=O)/C=C(O)/C=C/c2ccc(OC)c(O)c2)cc1O [compound 1] | – |
| – | COc1ccc(/C=C/C(=O)/C=C(O)/C=C/c2ccc(OC)c(OC)c2)cc1OC [compound 2] | IC50 (Human Aβ(1–42)): 150 nM; Improvement of Aβ aggregation inhibitory activity over curcumin (Human Aβ(1–42); ratio of IC50 values versus curcumin): 6-7 fold; inhibition at 1 µM (Human Aβ(1–42)): 75%; LD50 value relative to that of curcumin (Murine microglial cells; printed as fold lower than curcumin): approximately 2 fold |
| 66 | COc1cc(/C=C/C(=O)/C(C)=C(O)/C=C/c2ccc(O)c(OC)c2)ccc1O [compound 3] | – |
| 51 | COc1cc(/C=C/C(=O)/C(Cc2ccccc2)=C(O)/C=C/c2ccc(O)c(OC)c2)ccc1O [compound 4] | – |
| 45 | COc1cccc(/C=C/C(=O)/C=C(O)/C=C/c2cccc(OC)c2OC)c1OC [compound 7] | – |
| 74 | O=C(/C=C/c1ccc(O)c(O)c1)/C=C/c1ccc(O)c(O)c1 [compound 8] | – |
| 66 | COC(=O)c1ccc(/C=C/C(=O)/C=C/c2ccc(C(=O)OC)cc2)cc1 [compound 9] | – |
| 65 | O=C(/C=C/c1ccccc1)/C=C/c1ccccc1 [compound 10] | – |
| 63 | COc1cc(/C=C/C(=O)/C=C/c2ccccc2)ccc1O [compound 11] | – |
| 63 | COc1ccccc1/C=C/C(=O)/C=C/c1ccccc1OC [compound 12] | – |
| 62 | Cc1ccc(/C=C/C(=O)/C=C/c2ccc(C)cc2)cc1 [compound 13] | – |
| – | COc1cc(/C=C/C(=O)/C=C/c2ccc(O)c(OC)c2)ccc1O [compound 14] | inhibition at 1 µM (Human Aβ(1–42)): 58% |
| 58 | O=C(/C=C/c1cccc(Cl)c1)/C=C/c1cccc(Cl)c1 [compound 15] | – |
| 56 | COc1cccc(/C=C/C(=O)/C=C/c2cccc(OC)c2)c1 [compound 16] | – |
| 55 | O=C(/C=C/c1cccc(C(F)(F)F)c1)/C=C/c1cccc(C(F)(F)F)c1 [compound 17] | – |
| 54 | CN(C)c1ccc(/C=C/C(=O)/C=C/c2ccc(N(C)C)cc2)cc1 [compound 18] | – |
| 53 | COc1cc(/C=C/C(=O)/C=C/c2ccc(OC(C)=O)c(OC)c2)ccc1OC(C)=O [compound 19] | – |
| 49 | O=C(/C=C/c1ccc(O)cc1)/C=C/c1ccc(O)cc1 [compound 20] | – |
| – | COc1cc(/C=C/C(=O)CC(=O)/C=C/c2ccc(O)c(OC)c2)ccc1O [curcumin] | Effect on Aβ deposition [1]: reduced Aβ deposition; also recorded: significantly lowered Aβ deposition; IC50 [2]: 800 nM; inhibition at 1 µM (Human Aβ(1–42)): 50%; LD50 value (cytotoxicity, Wst-1) (Murine microglial cells): 40 µM; IC50 [3]: 1000 nM |
| – | COc1cc(CCC(=O)CC(=O)CCc2ccc(O)c(OC)c2)ccc1O [tetrahydrocurcumin] | Aβ aggregation inhibitory activity (Aβ aggregation): abolished Aβ aggregation inhibitory activity |
